The values that follow come from patent publication US8648086B2, “5,6-bicyclic heteroaryl-containing urea compounds as kinase inhibitors” (Ascepion Pharmaceuticals, Inc., priority 2009, dated 2014).

Molecules are shown by their SMILES. Where only a bound is given, the exact number is not on record here.

One assay has as its target T1, VEGFR2 (Homo sapiens, UniProt P35968).
T1 construct: expressed in transfected cells; host or cells: CHO cells, pcDNA3.1 plasmid
The experiment in a line: VEGFR2 cell-based assay (phospho-VEGFR2 ELISA, transfected CHO cells). To be noted: compound at 100 nM, read-out: % VEGFR2 kinase activity remains. On the procedure: A standard cell-based assay for VEGFR2 kinase activity can be used to test compounds of this invention and to identify VEGFR2 antagonists.
Specifically, a compound to be tested was first dissolved in DMSO to a concentration of 10 mM and stored at −20° C. The activity of VEGFR2 in cells depends on the phosphorylation level at its intracellular domain induced by the ligand. In order to express VEGFR2 in the cells, full length VEGFR2 sequence was cloned into PC-DNA3.1 vector, the plasmid was then transfected into CHO cells. After 48 hours, the expression of VEGFR2 in transfected CHO cells was confirmed by regular western blotting.
To screen the compounds of this invention, the ELISA kit (R&D Systems) was used. One day before the screening, CHO cells transfected with full length VEGFR2 plasmid were grown in DMEM medium without the presence of serum. On the day of screening, various concentrations of compounds (From 0.5 nM to 500 nM) were added into DMEM medium. Two hours later, 20% of FBS (Fetal Bovine Serum) was added into the medium to stimulate the production of phosphor-VEGFR2. Cell lysate from approximately 5×10^5 transfected CHO cells were reacted with anti-phosphor-VEGFR2 or anti-total VEGFR2 antibody in 96 well plates. In the presence of detection antibody, the phosphor-VEGFR2 or total VEGFR2 were detected with Streptavidin-HRP (R&D Systems) followed by chemiluminescence detection.
Background: In an ELISA, binding on a coated surface is turned into a signal by an enzyme label.

A further assay addresses T2, c-Met (Homo sapiens, UniProt P08581).
T2 construct: endogenous in cells; host or cells: A549 cells
The assay is described as follows: c-Met cell-based assay (phospho-c-Met ELISA, A549 cells). The note with it: compound at 100 nM. On the procedure:
A procedure for standard cell-based assay for c-Met kinase activity can be used to test compounds of this invention for their inhibitory effect on this kinase and to identify c-Met antagonists.
Specifically, a compound to be tested was first dissolved in DMSO to a concentration of 10 mM and stored at −20° C. The activity of c-Met in cells depends on the phosphorylation level at its intracellular domain induced by its ligand, Hepatocyte growth factor (HGF). In order to induce the cells to produce phosphate c-Met, paracrine HGF-dependent NSCLC (None Small Cell Lung Cancer) A549 cells were grown in DMEM with 10% FBS.
To screen compounds of this invention for their inhibitory effect on c-Met kinase, the ELISA kit (R&D Systems) was used. One day before screening procedure, A549 cells were grown in DMEM without the presence of serum. On the day of screening procedure, various concentrations of compounds (from 0.5 nM to 500 nM) were added into the culture medium. Two hours later, 20% of FBS (Fetal Bovine Serum) was added into the medium to stimulate the expression of phosphor-c-Met. After 20 minutes, cell lysate from approximately 5×10^5 A549 cells were reacted with anti-phosphor-c-Met or anti total c-Met antibody in 96 well plates. In the presence of detection antibody, the phosphor-c-Met or total c-Met can be detected with Streptavidin-HRP (R&D Systems) followed by chemiluminescence detection.

Assay [1] has as its system MDA-MB-231 human breast cancer cells. The assay is described as follows: In vivo anti-tumor efficacy, MDA-MB-231 xenograft. The note with it: Breast cancer MDA-MB-231, nu/nu Balb/c mice, 100 mg/kg oral once per day, n = 2 × 3. On the procedure:
Female (nu/nu) Balb/c athymic mice at 4-6 weeks of age were injected subcutaneously (s.c.) with MDA-MB-231 human breast cancer cells, A549 human non-small cell lung cancer cells, U87-MG human glioblastoma cells, PC-3 human prostate cancer cells, HT-29 human colon cancer, BEL-7404 human hepatocellular carcinoma, or MKN-45 human gastric cancer cells (ATCC, 5×10^6 cells suspended in 100 μl DMEM medium). Treatment was initiated after the tumor mass grown from s.c. implanted tumor cells reached a median volume of 200-400 mm^3. Mice were randomized into groups with three in each group for small-sample efficacy tests such that the median tumor volume is nearly equal among all groups. For large-sample efficacy tests, mice were randomized into groups with thirteen or fourteen in each group. Each group was treated either with compounds (dissolved in 2:1 mixture of PEG400 and 0.01N HCl (v/v)) or without compounds (vehicle only, 2:1 mixture of PEG400 and 0.01N HCl (v/v)) once per day at dose 12.5, 25, 50 or 100 mg/kg by oral gavage. Tumor volumes were assessed at least twice weekly by caliper measurement from the start of treatment. Tumor volume was calculated using the formula ½×L×W^2 (L: length of tumor's long axis, W: length of tumor's short axis). Treatment was applied for at least two weeks or until the tumor volume reaches a size of ˜2500 mm^3 or greater. Mice were humanly sacrificed after the experiment.
The efficacy of compounds in reducing tumor growth was assessed by the index Tumor Growth Inhibition (TGI). TGI for a given treatment period was calculated using the group mean tumor volumes according to the formula: TGI=100×(VVehicle—group−VTreatment—group)÷VVehicle—group wherein VVehicle—group represents the mean tumor volume for the group treated with vehicle and VTreatment—group represents the mean tumor volume of the group treated with a compound.

The target in another assay is T3, PDGFRβ (Homo sapiens, UniProt P09619).
T3 construct: expressed in transfected cells; host or cells: CHO cells, pcDNA3.1 plasmid
The experiment in a line: PDGFRβ cell-based assay (phospho-PDGFRβ ELISA, transfected CHO cells). The note with it: compound at 100 nM, read-out: % PDGFRβ kinase activity remains. The method, then:
A standard cell-based assay for PDGFRβ kinase activity can be used to test a compound of this invention and to identify PDGFRβ antagonists.
Specifically, a compound to be tested was first dissolved in DMSO to a concentration of 10 mM and stored at −20° C. The activity of PDGFRβ in cells depends on the phosphorylation level of its intracellular domain induced by the ligand. In order to express PDGFRβ in the cell, full length PDGFRβ sequence was cloned into PC-DNA3.1 vector. The plasmid was then transfected into CHO cells. After 48 hours following the transfection, the expression of PDGFRβ in transfected CHO cells was confirmed by regular western blotting.
To screen the compound of this invention, the ELISA kit (R&D Systems, Minneapolis, Minn., USA) was used. One day before the screening, CHO cells transfected with full length PDGFRβ plasmid were grown in DMEM medium without the presence of serum. On the day of screening, various concentrations of compounds (from 0.5 nM to 500 nM) were added into DMEM medium. Two hours later, 20% of FBS (Fetal Bovine Serum) was added into the medium to stimulate the expression of phosphor-PDGFRβ. Cell lysate from approximately 5×10^5 transfected CHO cells were reacted with anti-phosphor-PDGFRβ or anti-total PDGFRβ antibody in 96 well plates, in the presence of detection antibody, the phosphor-PDGFRβ or total PDGFRβ were detected with Streptavidin-HRP (R&D Systems), followed by chemiluminescent detection.

T2 sequence (P08581 25-1390): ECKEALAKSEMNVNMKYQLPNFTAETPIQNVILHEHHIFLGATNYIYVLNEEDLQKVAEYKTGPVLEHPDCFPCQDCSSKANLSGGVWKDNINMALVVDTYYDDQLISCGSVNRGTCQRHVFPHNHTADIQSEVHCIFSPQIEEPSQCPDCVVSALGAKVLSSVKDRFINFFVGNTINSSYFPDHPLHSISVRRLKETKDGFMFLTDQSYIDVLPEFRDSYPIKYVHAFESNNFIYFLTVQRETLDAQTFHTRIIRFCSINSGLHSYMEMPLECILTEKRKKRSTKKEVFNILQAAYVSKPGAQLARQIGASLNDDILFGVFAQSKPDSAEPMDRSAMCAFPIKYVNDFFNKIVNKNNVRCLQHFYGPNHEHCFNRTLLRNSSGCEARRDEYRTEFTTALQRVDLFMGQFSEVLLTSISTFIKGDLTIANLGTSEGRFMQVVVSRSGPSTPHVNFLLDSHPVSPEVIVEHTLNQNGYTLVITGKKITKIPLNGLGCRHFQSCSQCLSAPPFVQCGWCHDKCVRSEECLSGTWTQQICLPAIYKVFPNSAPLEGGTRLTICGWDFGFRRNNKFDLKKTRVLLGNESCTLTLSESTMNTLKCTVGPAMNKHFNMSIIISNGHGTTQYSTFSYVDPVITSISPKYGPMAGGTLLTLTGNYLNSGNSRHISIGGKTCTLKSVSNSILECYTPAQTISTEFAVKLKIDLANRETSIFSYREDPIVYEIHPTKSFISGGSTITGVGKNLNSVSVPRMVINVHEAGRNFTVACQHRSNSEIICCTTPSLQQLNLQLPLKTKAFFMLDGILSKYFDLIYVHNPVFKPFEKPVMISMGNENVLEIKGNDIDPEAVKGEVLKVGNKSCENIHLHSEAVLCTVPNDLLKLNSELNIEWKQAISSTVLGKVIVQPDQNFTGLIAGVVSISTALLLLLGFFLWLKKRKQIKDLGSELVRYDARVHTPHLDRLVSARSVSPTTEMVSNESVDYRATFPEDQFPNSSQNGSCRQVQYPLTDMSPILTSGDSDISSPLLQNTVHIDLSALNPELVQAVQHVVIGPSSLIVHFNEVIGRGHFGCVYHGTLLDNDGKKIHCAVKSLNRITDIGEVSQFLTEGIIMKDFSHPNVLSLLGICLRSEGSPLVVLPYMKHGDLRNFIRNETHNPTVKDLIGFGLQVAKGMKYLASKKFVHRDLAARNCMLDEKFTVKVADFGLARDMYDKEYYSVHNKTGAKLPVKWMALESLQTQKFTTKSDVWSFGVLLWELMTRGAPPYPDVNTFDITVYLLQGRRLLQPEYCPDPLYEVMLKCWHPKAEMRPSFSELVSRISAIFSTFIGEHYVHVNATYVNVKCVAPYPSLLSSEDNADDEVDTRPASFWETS
T1 sequence (P35968 20-1356, species assumed): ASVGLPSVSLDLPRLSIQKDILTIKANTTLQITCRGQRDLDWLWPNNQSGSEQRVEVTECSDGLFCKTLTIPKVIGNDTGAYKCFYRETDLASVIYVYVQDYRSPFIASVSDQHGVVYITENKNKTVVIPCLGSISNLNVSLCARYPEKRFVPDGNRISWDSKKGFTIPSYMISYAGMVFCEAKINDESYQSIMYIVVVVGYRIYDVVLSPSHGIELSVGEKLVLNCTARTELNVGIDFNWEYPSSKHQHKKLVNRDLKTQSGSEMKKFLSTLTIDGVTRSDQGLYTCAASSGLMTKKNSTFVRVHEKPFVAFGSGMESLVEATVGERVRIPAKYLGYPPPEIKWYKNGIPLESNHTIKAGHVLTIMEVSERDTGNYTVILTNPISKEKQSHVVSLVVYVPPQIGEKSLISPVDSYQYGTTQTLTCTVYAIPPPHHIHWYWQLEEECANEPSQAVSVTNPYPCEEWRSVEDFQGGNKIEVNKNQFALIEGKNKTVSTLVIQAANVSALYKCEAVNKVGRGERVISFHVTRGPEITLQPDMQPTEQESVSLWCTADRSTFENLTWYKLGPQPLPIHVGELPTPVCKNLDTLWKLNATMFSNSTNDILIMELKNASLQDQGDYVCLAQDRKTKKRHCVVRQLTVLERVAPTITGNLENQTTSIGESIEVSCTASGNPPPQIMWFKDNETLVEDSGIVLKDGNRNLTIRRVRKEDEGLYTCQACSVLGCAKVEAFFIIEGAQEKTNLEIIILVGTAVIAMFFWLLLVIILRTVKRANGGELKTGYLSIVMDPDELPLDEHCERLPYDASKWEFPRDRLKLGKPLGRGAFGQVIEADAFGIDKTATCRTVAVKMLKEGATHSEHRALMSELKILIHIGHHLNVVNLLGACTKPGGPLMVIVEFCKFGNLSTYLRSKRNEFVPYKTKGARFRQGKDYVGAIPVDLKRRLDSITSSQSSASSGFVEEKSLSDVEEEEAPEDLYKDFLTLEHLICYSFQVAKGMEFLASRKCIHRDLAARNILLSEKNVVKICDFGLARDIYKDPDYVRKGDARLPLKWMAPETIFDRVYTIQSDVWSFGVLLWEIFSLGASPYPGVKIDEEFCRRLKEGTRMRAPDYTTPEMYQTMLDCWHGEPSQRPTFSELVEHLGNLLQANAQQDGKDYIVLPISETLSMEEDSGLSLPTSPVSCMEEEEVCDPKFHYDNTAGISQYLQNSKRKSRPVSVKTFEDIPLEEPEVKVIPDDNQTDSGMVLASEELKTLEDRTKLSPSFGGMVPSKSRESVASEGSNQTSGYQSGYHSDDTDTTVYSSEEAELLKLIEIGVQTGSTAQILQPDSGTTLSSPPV
T3 sequence (P09619 33-1106, species assumed): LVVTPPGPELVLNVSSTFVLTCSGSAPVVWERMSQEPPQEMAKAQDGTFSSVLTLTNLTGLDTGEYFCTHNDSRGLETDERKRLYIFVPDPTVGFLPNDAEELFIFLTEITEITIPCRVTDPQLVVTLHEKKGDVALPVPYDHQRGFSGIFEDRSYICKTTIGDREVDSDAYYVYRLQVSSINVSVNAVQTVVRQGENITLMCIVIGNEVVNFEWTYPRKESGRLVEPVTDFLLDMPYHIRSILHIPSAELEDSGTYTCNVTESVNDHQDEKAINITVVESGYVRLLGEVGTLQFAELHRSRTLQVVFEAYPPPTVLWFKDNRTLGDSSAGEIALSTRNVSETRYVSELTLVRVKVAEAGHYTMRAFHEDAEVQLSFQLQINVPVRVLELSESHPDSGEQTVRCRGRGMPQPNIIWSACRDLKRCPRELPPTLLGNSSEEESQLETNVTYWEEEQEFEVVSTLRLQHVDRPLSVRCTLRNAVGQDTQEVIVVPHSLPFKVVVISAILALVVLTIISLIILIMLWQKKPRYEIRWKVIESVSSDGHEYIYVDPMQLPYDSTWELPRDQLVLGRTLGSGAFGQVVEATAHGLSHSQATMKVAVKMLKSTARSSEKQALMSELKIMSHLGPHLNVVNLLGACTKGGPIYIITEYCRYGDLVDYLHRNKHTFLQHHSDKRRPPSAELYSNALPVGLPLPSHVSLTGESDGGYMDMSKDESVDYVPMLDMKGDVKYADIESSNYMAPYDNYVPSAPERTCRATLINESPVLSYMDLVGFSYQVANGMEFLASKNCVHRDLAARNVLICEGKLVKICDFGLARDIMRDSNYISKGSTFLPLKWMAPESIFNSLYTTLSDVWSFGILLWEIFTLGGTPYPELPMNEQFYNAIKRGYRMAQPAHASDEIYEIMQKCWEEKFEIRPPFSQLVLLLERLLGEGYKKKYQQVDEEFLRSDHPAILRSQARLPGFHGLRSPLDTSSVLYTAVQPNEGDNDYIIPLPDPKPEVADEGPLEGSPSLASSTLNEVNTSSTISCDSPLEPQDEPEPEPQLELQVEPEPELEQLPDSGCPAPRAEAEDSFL

On to `COc1ccc(Cl)cc1NC(=O)Nc1cccc2c1CCN2Cc1ccnc2[nH]ccc12.Cl` [Example 1, 1-(2-Methoxyl-5-chlorophenyl)-3-[1-(1H-pyrrolo[2,3-b]pyridin-4-ylmethyl)-2,3-dihydro-1H-indol-4-yl]urea hydrochloride], for which the remaining activity at 0.1 µM on VEGFR2 was less than 70%. Besides, on c-Met, the “% c-Met kinase activity remains” value is recorded as “A (the percentage of kinase activity remains is below 70%)”. In addition, the “Tumor Growth Inhibition (TGI)” value in assay [1] is “A (the TGI is greater or equal to 50%)”.

In the case of `Cl.O=C(Nc1ccc(Cl)cc1F)Nc1cccc2c1ccn2Cc1c[nH]c2ncccc12` [Example 28, 1-(2-Fluoro-4-chlorophenyl)-3-[1-(1H-pyrrolo[2,3-b]pyridin-3-ylmethyl)-1H-indol-4-yl]urea hydrochloride], the remaining activity at 0.1 µM at PDGFRβ was not below 70%; on VEGFR2, less than 70%. Moreover, at c-Met, the “% c-Met kinase activity remains” value is on record as “A (the percentage of kinase activity remains is below 70%)”.

As for `Cl.O=C(Nc1cc(Cl)ccc1F)Nc1cccc2c1ccn2Cc1c[nH]c2ncccc12` [Example 29, 1-(2-Fluoro-5-chlorophenyl)-3-[1-(1H-pyrrolo[2,3-b]pyridin-3-ylmethyl)-1H-indol-4-yl]urea hydrochloride], the remaining activity at 0.1 µM was not below 70% on PDGFRβ and less than 70% at VEGFR2. Besides, the “% c-Met kinase activity remains” value at c-Met is on record as “B (the percentage is greater or equal to 70%)”.

Take `Cl.O=C(Nc1cc(Br)ccc1F)Nc1cccc2c1ccn2Cc1c[nH]c2ncccc12` [Example 30, 1-(2-Fluoro-5-bromophenyl)-3-[1-(1H-pyrrolo[2,3-b]pyridin-3-ylmethyl)-1H-indol-4-yl]urea hydrochloride]: the figures for the remaining activity at 0.1 µM on PDGFRβ and at VEGFR2 were not below 70% and less than 70%, respectively. Moreover, the “% c-Met kinase activity remains” value on c-Met was “B (the percentage is greater or equal to 70%)”.

Take `COc1ccc(OC)c(NC(=O)Nc2cccc3c2ccn3Cc2c[nH]c3ncccc23)c1.Cl` [Example 32, 1-(2,5-Dimethoxyphenyl)-3-[1-(1H-pyrrolo[2,3-b]pyridin-3-ylmethyl)-1H-indol-4-yl]urea hydrochloride]: the remaining activity at 0.1 µM on PDGFRβ was not below 70%; at VEGFR2 it was less than 70%. For the same compound, the “% c-Met kinase activity remains” value on c-Met is on record as “A (the percentage of kinase activity remains is below 70%)”.

In the case of `Cl.O=C(Nc1cccc(F)c1)Nc1cccc2c1ccn2Cc1ccnc2[nH]ccc12` [Example 35, 1-(3-Fluorophenyl)-3-[1-(1H-pyrrolo[2,3-b]pyridin-4-ylmethyl)-1H-indol-4-yl]urea hydrochloride], the remaining activity at 0.1 µM on PDGFRβ was not below 70%; on VEGFR2, less than 70%. In addition, the “% c-Met kinase activity remains” value on c-Met was “A (the percentage of kinase activity remains is below 70%)”.

On to `Cl.O=C(Nc1ccc(F)cc1)Nc1cccc2c1ccn2Cc1ccnc2[nH]ccc12` [Example 36, 1-(4-Fluorophenyl)-3-[1-(1H-pyrrolo[2,3-b]pyridin-4-ylmethyl)-1H-indol-4-yl]urea hydrochloride], for which the remaining activity at 0.1 µM on PDGFRβ was not below 70%; on VEGFR2, less than 70%. Also, the “% c-Met kinase activity remains” value on c-Met is listed as “A (the percentage of kinase activity remains is below 70%)”.

As for `COc1cccc(NC(=O)Nc2cccc3c2ccn3Cc2ccnc3[nH]ccc23)c1.Cl` [Example 47, 1-(3-Methoxyphenyl)-3-[1-(1H-pyrrolo[2,3-b]pyridin-4-ylmethyl)-1H-indol-4-yl]urea hydrochloride], the remaining activity at 0.1 µM at PDGFRβ is not below 70%; at VEGFR2, less than 70%. The “% c-Met kinase activity remains” value on c-Met is on record as “A (the percentage of kinase activity remains is below 70%)”.

As to `Cl.O=C(Nc1ccc(C(F)(F)F)cc1)Nc1cccc2c1ccn2Cc1ccnc2[nH]ccc12` [Example 52, 1-(4-Trifluoromethylphenyl)-3-[1-(1H-pyrrolo[2,3-b]pyridin-4-ylmethyl)-1H-indol-4-yl]urea hydrochloride], the remaining activity at 0.1 µM was not below 70% on PDGFRβ and less than 70% on VEGFR2. Besides, the “% c-Met kinase activity remains” value on c-Met is on record as “B (the percentage is greater or equal to 70%)”.

Turning to `Cl.N#Cc1ccc(NC(=O)Nc2cccc3c2ccn3Cc2ccnc3[nH]ccc23)cc1` [Example 54, 1-(4-Cyanophenyl)-3-[1-(1H-pyrrolo[2,3-b]pyridin-4-ylmethyl)-1H-indol-4-yl]urea hydrochloride], the remaining activity at 0.1 µM at PDGFRβ and at VEGFR2 was not below 70% throughout. The “% c-Met kinase activity remains” value on c-Met is “B (the percentage is greater or equal to 70%)”.

As to `Cl.O=C(Nc1ccc(Cl)cc1F)Nc1cccc2c1ccn2Cc1ccnc2[nH]ccc12` [Example 55, 1-(2-Fluoro-4-chlorophenyl)-3-[1-(1H-pyrrolo[2,3-b]pyridin-4-ylmethyl)-1H-indol-4-yl]urea hydrochloride], the figures for the remaining activity at 0.1 µM on PDGFRβ and on VEGFR2 were not below 70% and less than 70%, respectively. Besides, the “% c-Met kinase activity remains” value on c-Met is “B (the percentage is greater or equal to 70%)”.
